This is an account of results in BindingDB's records for patent US20240174690 (Boehringer Ingelheim International, 2024).

In this assay the target is GTPase KRas [G12C,C51S,C80L,C118S] (Homo sapiens, UniProt P01116, C118S/C51S/C80L/G12C). The experiment in a line: AlphaScreen Binding Assay.
From the text: […]

Chain of GTPase KRas [G12C,C51S,C80L,C118S] (P01116 whole entry G12C/C51S/C80L/C118S, looked up): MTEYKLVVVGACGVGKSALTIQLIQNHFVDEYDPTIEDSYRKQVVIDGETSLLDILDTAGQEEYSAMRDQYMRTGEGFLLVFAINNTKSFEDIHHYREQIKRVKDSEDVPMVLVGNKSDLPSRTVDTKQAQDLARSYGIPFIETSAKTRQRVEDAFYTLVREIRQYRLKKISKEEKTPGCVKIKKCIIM

Take `C[C@H](Oc1cc(-n2nccc2-c2ccncc2)nc(-c2noc3c2CCC[C@@]32CCCc3sc(N)c(C#N)c32)n1)[C@@H]1CCCN1C` [US20240174690, Example II-131]: the 50% inhibitory concentration (IC50) was 4 nM.

As usually defined, the IC50 is the midpoint of a concentration-inhibition curve. A higher IC50 goes with weaker potency.
